According to ChEMBL document CHEMBL1955715 (Bioorg Med Chem Lett, 2012):
The source made the active and inactive calls. No cut-off for these calls is given here.

Columns and labels:
Rattus norvegicus [1] = experiment: Wake promoting activity in EEG/EMG Sprague-Dawley rat model assessed as total time awake at 100 mg/kg, ip measured up to 3 hrs (reference value: 65 +/- 9 mins); details: route intraperitoneal
Transporter = Transporter (Rattus norvegicus, UniProt Q63380); experiment: Inhibition of rat NET-mediated norepinephrine reuptake
Sequence of Transporter (Q63380 whole entry): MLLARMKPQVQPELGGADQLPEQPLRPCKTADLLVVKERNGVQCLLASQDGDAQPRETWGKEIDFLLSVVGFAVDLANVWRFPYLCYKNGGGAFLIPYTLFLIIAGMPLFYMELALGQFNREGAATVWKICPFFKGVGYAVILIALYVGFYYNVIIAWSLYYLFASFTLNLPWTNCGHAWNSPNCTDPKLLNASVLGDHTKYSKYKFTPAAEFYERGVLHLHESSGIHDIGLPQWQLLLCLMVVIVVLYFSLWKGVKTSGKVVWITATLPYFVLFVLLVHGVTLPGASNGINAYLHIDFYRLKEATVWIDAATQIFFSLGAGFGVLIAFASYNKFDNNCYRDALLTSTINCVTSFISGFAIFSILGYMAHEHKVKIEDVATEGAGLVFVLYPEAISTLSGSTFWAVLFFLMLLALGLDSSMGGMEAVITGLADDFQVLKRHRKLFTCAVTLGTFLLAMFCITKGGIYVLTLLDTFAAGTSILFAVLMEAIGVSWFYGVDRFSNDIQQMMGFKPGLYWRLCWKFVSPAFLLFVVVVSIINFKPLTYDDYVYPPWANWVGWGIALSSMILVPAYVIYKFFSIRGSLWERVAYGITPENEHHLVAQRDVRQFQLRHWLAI

[2] = biological target: Sodium-dependent serotonin transporter (Rattus norvegicus, UniProt P31652); experiment: Inhibition of rat SERT-mediated serotonin reuptake
Sequence of Sodium-dependent serotonin transporter (P31652 whole entry): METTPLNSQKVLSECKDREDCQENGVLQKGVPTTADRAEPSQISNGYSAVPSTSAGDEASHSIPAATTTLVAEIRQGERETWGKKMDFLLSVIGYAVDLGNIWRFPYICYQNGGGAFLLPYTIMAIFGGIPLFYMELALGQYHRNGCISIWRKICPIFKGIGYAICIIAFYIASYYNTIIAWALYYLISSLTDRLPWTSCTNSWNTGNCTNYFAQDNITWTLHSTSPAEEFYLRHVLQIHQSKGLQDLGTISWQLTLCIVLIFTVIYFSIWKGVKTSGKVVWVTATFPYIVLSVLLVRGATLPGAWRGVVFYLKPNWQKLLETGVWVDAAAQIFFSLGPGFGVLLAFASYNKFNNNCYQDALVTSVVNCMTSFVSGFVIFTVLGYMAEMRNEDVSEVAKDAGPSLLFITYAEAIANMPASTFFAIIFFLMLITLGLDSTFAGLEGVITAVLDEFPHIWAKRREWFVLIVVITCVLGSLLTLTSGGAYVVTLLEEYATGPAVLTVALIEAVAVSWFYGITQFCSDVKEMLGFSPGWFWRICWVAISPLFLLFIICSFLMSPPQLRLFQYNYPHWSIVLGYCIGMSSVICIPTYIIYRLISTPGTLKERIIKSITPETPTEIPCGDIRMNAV

[3] = Solubility of the compound in water at pH 7.4; type: physicochemical
[4] = Metabolic stability in human liver S9 fraction assessed as compound remaining after 2 hrs; type: ADME, subcellular; details: read-out: Stability
CYP2D6 = CYP2D6 (Homo sapiens, UniProt P10635); experiment: Inhibition of CYP2D6 at 10 uM; type: ADME
Sequence of CYP2D6 (P10635 whole entry): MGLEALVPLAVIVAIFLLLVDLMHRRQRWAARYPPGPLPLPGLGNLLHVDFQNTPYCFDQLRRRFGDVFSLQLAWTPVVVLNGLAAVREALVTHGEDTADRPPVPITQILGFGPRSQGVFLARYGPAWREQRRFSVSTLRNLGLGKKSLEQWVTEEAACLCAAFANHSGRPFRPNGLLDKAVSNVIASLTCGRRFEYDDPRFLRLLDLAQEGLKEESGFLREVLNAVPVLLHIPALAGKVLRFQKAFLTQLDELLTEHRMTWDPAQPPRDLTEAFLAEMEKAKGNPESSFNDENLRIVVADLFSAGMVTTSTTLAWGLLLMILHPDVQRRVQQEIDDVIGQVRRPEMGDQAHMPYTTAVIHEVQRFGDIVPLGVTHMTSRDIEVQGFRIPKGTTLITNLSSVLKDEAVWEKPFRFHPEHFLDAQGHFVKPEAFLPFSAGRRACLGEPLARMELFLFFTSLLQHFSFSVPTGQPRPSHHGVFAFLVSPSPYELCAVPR

Rattus norvegicus [5] = experiment: Wake promoting activity in po dosed EEG/EMG Sprague-Dawley rat model assessed as slow wave sleep and rapid eye movement sleep; type: functional, organism-based
CYP3A4 = CYP3A4 (Homo sapiens, UniProt P08684); experiment: Inhibition of CYP3A4 at 10 uM; type: ADME
Sequence of CYP3A4 (P08684 whole entry): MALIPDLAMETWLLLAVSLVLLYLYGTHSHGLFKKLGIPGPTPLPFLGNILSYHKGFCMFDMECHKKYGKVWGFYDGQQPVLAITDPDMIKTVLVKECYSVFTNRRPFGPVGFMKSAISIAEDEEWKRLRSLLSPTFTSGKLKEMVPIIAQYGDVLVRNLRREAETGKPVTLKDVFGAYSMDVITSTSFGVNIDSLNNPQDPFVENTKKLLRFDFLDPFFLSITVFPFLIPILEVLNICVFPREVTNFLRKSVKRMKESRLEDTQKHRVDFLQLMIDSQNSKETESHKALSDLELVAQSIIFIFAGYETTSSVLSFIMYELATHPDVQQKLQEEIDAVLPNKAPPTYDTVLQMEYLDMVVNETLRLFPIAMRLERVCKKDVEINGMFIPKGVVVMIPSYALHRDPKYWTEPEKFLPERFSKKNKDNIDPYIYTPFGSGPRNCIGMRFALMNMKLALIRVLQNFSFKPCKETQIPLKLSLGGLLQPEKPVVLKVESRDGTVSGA

Cytochrome P450 2C19 = Cytochrome P450 2C19 (Homo sapiens, UniProt P33261); experiment: Inhibition of CYP2C19; type: ADME
Sequence of Cytochrome P450 2C19 (P33261 whole entry): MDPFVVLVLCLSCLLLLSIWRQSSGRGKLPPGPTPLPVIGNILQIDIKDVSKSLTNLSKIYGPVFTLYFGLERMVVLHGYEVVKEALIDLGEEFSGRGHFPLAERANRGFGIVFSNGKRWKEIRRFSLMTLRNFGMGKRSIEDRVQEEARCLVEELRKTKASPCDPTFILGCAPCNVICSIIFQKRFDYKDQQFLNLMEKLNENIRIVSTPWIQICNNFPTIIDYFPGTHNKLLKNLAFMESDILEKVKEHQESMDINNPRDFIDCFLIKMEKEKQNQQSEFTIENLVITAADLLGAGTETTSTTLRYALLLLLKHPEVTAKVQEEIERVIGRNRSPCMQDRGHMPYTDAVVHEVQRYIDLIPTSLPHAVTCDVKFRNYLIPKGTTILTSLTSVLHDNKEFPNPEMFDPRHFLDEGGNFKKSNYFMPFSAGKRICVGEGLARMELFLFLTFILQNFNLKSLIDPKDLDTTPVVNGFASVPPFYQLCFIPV

[6] = biological target: T1, Sodium-dependent dopamine transporter (Rattus norvegicus, UniProt P23977); experiment: Inhibition of rat DAT-mediated dopamine reuptake
T1 sequence (P23977 whole entry): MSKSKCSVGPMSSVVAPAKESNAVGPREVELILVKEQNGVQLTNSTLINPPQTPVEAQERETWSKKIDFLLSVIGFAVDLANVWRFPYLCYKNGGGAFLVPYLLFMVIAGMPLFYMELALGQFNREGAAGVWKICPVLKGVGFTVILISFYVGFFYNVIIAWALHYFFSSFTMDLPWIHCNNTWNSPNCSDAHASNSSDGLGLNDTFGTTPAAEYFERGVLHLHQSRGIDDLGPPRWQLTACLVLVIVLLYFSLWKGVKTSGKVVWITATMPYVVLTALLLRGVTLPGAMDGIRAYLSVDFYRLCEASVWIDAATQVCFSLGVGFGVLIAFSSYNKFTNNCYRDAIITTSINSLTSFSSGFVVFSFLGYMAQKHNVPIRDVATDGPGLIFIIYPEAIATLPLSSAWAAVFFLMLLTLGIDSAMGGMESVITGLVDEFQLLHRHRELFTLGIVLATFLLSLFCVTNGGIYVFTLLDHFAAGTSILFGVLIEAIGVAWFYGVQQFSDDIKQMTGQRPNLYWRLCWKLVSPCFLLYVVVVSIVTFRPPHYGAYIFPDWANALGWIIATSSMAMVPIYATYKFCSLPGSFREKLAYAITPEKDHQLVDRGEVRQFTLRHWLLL

Salmonella typhimurium = experiment: Mutagenic activity in Salmonella Typhimurium by Mini-Ames test; type: toxicity, organism-based; details: salmonella enterica subsp. enterica serovar typhimurium
[7] = biological target: T1, Sodium-dependent dopamine transporter; experiment: Inhibition of rat DAT
[8] = biological target: Voltage-gated inwardly rectifying potassium channel KCNH2 (Homo sapiens, UniProt Q12809); experiment: Inhibition of human ERG at 10 uM
Sequence of Voltage-gated inwardly rectifying potassium channel KCNH2 (Q12809 whole entry): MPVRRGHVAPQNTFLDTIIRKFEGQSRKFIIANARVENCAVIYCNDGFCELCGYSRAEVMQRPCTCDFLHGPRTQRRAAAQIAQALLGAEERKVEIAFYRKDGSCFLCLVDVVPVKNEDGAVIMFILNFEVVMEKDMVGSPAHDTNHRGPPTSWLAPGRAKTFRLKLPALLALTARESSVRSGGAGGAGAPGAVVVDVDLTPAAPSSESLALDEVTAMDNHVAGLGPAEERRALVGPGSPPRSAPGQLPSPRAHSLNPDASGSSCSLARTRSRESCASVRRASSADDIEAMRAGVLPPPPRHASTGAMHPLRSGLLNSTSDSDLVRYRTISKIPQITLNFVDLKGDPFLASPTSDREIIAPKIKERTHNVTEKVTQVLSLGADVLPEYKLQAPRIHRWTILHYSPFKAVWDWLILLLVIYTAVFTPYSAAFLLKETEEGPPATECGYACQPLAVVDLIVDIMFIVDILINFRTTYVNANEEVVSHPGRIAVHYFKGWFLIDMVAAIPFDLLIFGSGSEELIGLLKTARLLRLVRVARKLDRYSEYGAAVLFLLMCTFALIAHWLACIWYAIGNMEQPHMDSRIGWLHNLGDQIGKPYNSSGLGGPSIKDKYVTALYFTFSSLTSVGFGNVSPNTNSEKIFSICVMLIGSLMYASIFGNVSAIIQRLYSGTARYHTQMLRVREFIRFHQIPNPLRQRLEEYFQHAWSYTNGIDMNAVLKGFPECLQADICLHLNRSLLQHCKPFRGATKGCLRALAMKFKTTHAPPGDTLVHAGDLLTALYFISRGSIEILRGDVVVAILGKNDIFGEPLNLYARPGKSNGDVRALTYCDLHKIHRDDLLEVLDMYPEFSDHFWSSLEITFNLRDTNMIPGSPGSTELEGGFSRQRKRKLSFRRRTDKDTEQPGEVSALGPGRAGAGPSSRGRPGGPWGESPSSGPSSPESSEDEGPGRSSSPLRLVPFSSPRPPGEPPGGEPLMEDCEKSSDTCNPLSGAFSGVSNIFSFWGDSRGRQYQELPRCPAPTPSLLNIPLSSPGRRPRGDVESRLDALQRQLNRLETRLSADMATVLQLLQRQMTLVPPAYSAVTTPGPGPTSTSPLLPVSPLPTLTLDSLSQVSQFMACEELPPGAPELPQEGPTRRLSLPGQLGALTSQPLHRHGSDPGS

Plasma = experiment: Plasma concentration in human; type: ADME, cell-free

NC(=O)C[S+]([O-])Cc1ccc(-c2ccccc2)cc1 (stereo not drawn)
Time (Rattus norvegicus [1]): 100 min

NC(=O)C[S+]([O-])Cc1ccccc1-c1ccc(OC(F)(F)F)cc1 (stereo not drawn)
Time (Rattus norvegicus [1]): 108 min

Cc1ccc(-c2ccccc2C[S+]([O-])CC(N)=O)cc1 (stereo not drawn)
Time (Rattus norvegicus [1]): 146 min

NC(=O)C[S+]([O-])Cc1ccccc1-c1cccc(C(N)=O)c1 (stereo not drawn)
Time (Rattus norvegicus [1]): 62 min

NC(=O)C[S+]([O-])Cc1ccccc1-c1ccc(Br)cc1 (stereo not drawn)
Time (Rattus norvegicus [1]): 174 min

COc1ccccc1-c1ccccc1C[S+]([O-])CC(N)=O (stereo not drawn)
Time (Rattus norvegicus [1]): 86 min

CC(=O)c1ccc(-c2ccccc2C[S+]([O-])CC(N)=O)cc1 (stereo not drawn)
Time (Rattus norvegicus [1]): 77 min

NC(=O)C[S+]([O-])Cc1ccccc1-c1ccc(Cl)cc1 (racemic)
IC50 (Transporter): 10 µM | IC50 [2]: > 300 µM | solubility [3]: > 100 µg/mL | remaining at 2 h [4]: 94% | Time (Rattus norvegicus [1]): 176 min | inhibition at 10 µM (CYP2D6): < 10% | Activity (Rattus norvegicus [5]): Active | inhibition at 10 µM (CYP3A4): < 10% | IC50 (Cytochrome P450 2C19): 19 µM | IC50 [6]: 0.83 µM | Activity (Salmonella typhimurium): Non-toxic | IC50 [7]: 0.6 µM | inhibition (INH) [8]: Not Active

NC(=O)C[S+]([O-])Cc1cccc(-c2ccc(Cl)cc2)c1 (stereo not drawn)
Time (Rattus norvegicus [1]): 96 min

Cc1ccccc1-c1cccc(C[S+]([O-])CC(N)=O)c1 (stereo not drawn)
Time (Rattus norvegicus [1]): 117 min

N#Cc1ccc(-c2ccccc2C[S+]([O-])CC(N)=O)cc1 (stereo not drawn)
Time (Rattus norvegicus [1]): 65 min

N#Cc1cccc(-c2ccccc2C[S+]([O-])CC(N)=O)c1 (stereo not drawn)
Time (Rattus norvegicus [1]): 99 min

NC(=O)C[S+]([O-])Cc1ccccc1-c1ccccc1F (stereo not drawn)
Time (Rattus norvegicus [1]): 64 min

NC(=O)C[S+]([O-])Cc1ccccc1-c1ccc(F)cc1 (stereo not drawn)
Time (Rattus norvegicus [1]): 147 min

NC(=O)C[S+]([O-])Cc1ccccc1-c1ccccc1 (stereo not drawn)
Time (Rattus norvegicus [1]): 119 min

NC(=O)C[S+]([O-])C(c1ccccc1)c1ccccc1 (stereo not drawn) [MODAFINIL]
concentration (Plasma): > 30 µM | solubility [3]: > 100 µg/mL | remaining at 2 h [4]: 77% | Time (Rattus norvegicus [1]): 117 min | inhibition at 10 µM (CYP2D6): < 10% | inhibition at 10 µM (CYP3A4): < 10% | IC50 (Cytochrome P450 2C19): 11 µM | Activity (Salmonella typhimurium): Non-toxic

NC(=O)C[S+]([O-])Cc1ccccc1-c1ccccc1Cl (stereo not drawn)
Time (Rattus norvegicus [1]): 49 min

NC(=O)C[S+]([O-])Cc1ccccc1-c1cccc(Cl)c1 (stereo not drawn)
Time (Rattus norvegicus [1]): 106 min

NC(=O)C[S+]([O-])Cc1ccc(-c2ccc(Cl)cc2)cc1 (stereo not drawn)
Time (Rattus norvegicus [1]): 92 min
